# Experimental data published in ChEMBL document CHEMBL1137228, “Benzoxepin-derived estrogen receptor modulators: a novel molecular scaffold for the estrogen receptor” (J Med Chem, 2004).
# Biological target: T1, Estrogen receptor (Homo sapiens, UniProt Q92731+P03372)
# Test: Inhibition of estrogen receptor positive human breast carcinoma (MCF-7) cell proliferation
# Type: functional
row,Structure (SMILES),IC50 [µM]
1,COc1ccccc1C1=C(c2ccc(OCCN(C)C)cc2)c2ccccc2OCC1,11.7
2,CN(C)CCOc1ccc(C2=C(c3ccc(C#N)cc3)CCOc3ccccc32)cc1,74.3
3,CN(C)CCOc1ccc(C2=C(c3ccccc3)CCOc3ccccc32)cc1,16.2
4,c1ccc(C2=C(c3ccc(OCCN4CCOCC4)cc3)c3ccccc3OCC2)cc1,7.6
5,c1ccc(C2=C(c3ccc(OCCN4CCCCC4)cc3)c3ccccc3OCC2)cc1,10.6
6,Cc1ccc(C2=C(c3ccc(OCCN(C)C)cc3)c3ccccc3OCC2)cc1,15.7
7,Cc1cccc(C2=C(c3ccc(OCCN(C)C)cc3)c3ccccc3OCC2)c1,33.6
8,COc1ccc(C2=C(c3ccc(OCCN(C)C)cc3)c3ccccc3OCC2)cc1,11.1
9,c1ccc(C2=C(c3ccc(OCCN4CCCC4)cc3)c3ccccc3OCC2)cc1,6.1
10,CN(C)CCOc1ccc(C2=C(c3cccc([N+](=O)[O-])c3)CCOc3ccccc32)cc1,64.6
11,COc1cccc(C2=C(c3ccc(OCCN(C)C)cc3)c3ccccc3OCC2)c1,56.6
12,CN(C)CCOc1ccc(C2=C(c3ccc(Cl)cc3)CCOc3ccccc32)cc1,18.3
13,CCN(CC)CCOc1ccc(C2=C(c3ccccc3)CCOc3ccccc32)cc1,14.2

# Biological target: T1, Estrogen receptor
# Test: Binding affinity for estrogen receptor of human breast carcinoma (MCF-7) cell line; 828 +/- 106 […]
row,Structure (SMILES),Ki [nM]
1,Cc1ccc(C2=C(c3ccc(OCCN(C)C)cc3)c3ccccc3OCC2)cc1,828

# Biological target: T1, Estrogen receptor
# Test: Binding affinity for estrogen receptor of human breast carcinoma (MCF-7) cell line
row,Structure (SMILES),Ki [µM]
1,CN(C)CCOc1ccc(C2=C(c3ccccc3)CCOc3ccccc32)cc1,3.2
